Test results reported in USRE49444E1, “Method of treating osteoporosis comprising administration of PTHrP analog” (priority 2006, dated 2023).
Read-outs that look alike come from different tables or passages of the source.

Tests used:
[1] = system: Bacteria and Yeasts/moulds; test: Preservative effectiveness test (European Pharmacopoeia 5.1.3), overall result; assay type: cell-based; settings: for preservative efficacy: after 3 and 4.5 months storage; for Preservative effectiveness test Results: after manufacturing
Procedure: (§1) Solutions were prepared at room temperature, by dissolution of the various ingredients in water for injection, with stirring over <30 minutes to ensure complete dissolution, Solutions were filtered through 0.2 micron filter and filled into glass vials, to which a rubber stopper was applied and crimped in place to ensure complete closure.
The solutions were then stored for up to 3 months at 25° C., and up to 4.5 months at 5° C. and the preservative effectiveness test repeated. as described in Example 5.

Staphylococcus aureus = test: Preservative effectiveness test, plate-count method; assay type: cell-based; settings: after 3 and 4.5 months storage
clinical = settings: human, in vivo; for AUC: AUC0-tau
Procedure: (§3) A randomized, double-blind, placebo-controlled, multiple-dose design study of Glu^22,25, Leu^23,28,31, Aib^29, Lys^263]hPTHrP(1-34)NH2 (SEQ ID NO.: 2) was conducted at 2 sites. A total of 39 eligible subjects were sequentially enrolled into 1 of 4 study groups consisting of 10 subjects each, with the exception of Group 2, which had 9 subjects. Within each study group, 8 subjects were randomly assigned to receive SEQ ID NO.: 2 and 2 subjects were randomly assigned to receive placebo (In Group 2 only, 1 subject received placebo). All subjects in the study were judged by the investigator to be healthy, normal volunteers. The test products were Glu^22,25, Leu^23,28,31, Aib^29, Lys^26,30]hPTHrP(1-34)NH2 (SEQ ID NO.: 2) (0.1 mg/vial) and Placebo (0.9% sodium chloride injection, USP). All subjects received a single subcutaneous (SC) dose of Glu^22,25, Leu^23,28,31, Aib^29, Lys^26,30]hPTHrP(1-34)NH2 (SEQ ID NO.: 2) or placebo for 7 days.
(§4) Criteria for Evaluation: Pharmacokinetics: PK sampling for plasma SEQ ID NO.: 2 on Days 1 and 7 was performed at the following time points: Predose (0 hour), 0.25, 0.5, 1, 1.5, 2, 3, 4, 6, 8, 12, and 24 hours postdose. Additionally, predose samples were taken for trough drug analysis on Days 3 to 6. The following PK parameters were computed for Days 1 and 7: AUC(0-t), AUC(0-∞) (Day 1 only), AUC(0-τ), AUCR (Day 1 only), Cmax, Tmax, Tlast, CL/F, Kel, t1/2, and AI (Day 7 only). These parameters were calculated from the overall (24 hours) plasma concentration-versus-time profiles by noncompartmental methods using WinNonlin® Pro Version 5.01 and SAS® Version 8.2. Moreover, the ln-transformed PK parameters Cmax, AUC(0-t), AUC(0-τ), and AUC(0-∞) are presented.
(§5) Plasma concentration and PK parameters for SEQ ID NO.: 2 were listed by subject and summarized by treatment and day using descriptive statistics (mean, standard deviation [SD], coefficient of variation [CV %], standard error of the mean [SEM], sample size [N], minimum [min], maximum [max], and median). Additionally, geometric means and ln-transformed values were provided for Cmax and AUCs. Dose proportionality was evaluated for Days 1 and 7 SEQ ID NO.: 2 data using the following power model: Ln(Y)=β0+β Ln Dose+ε where Y represents the PK parameters AUC(0-28), AUC(0-τ), AUC(0-t), and Cmax. Dose proportionality requires that β=1 for dose-dependent parameters.
(§6) The model was used to calculate the 95% confidence intervals (CI) for the slope of the ln-transformed PK parameters AUCs and Cmax. Dose proportionally was concluded if the 95% CI for the PK parameters included the value of 1.
(§7) For those cases in which dose proportionality could not be concluded within all doses investigated, dose proportionality analysis was performed for the first 3 (by excluding the highest dose) and the last 3 doses (by excluding the lowest dose).

[2] = system: urine PD markers (calcium, phosphorus, c-AMP, creatinine); test: Clinical study: pharmacodynamic markers in urine; assay type: in vivo, human
Procedure: Urine PD Samples (Calcium Phosphorus Cyclic AMP [c-AMP], and Creatinine) were Obtained at the Following Time Points:
Day −1/Day 1: −24 to −18 hours, −18 to −12 hours, and −12 hours to 0 hours.
Days 1 and 7: 0 to 6 hours, 6 to 12 hours, and 12 to 24 hours.
The following parameters in urine were presented for each of the PD markers using SAS® Version 8.2: Volume (Vol.), concentration (Conc.), amount (Ae), cumulative amount (Cum. Ae), and excretion rates.
(§2) The data for each PD marker in serum (total and ionized calcium, phosphorus, PTH(1-84), 1,25-dihydroxyvitamin D, P1NP, and CTX) and in urine (calcium, phosphorus, c-AMP, and creatinine) following SEQ ID NO.: 2 and placebo doses were listed for each subject and summarized by SEQ ID NO.: 2 dose using descriptive statistics (mean, SD, CV %, SEM, N, min, max, and median).

[3] = Chemical stability of different formulations (SEQ ID NO.: 2 content); assay type: physicochemical; settings: Table 6 formulations
Procedure: as §1
Table 6 details the chemical stability of the formulations described in Example 4.

[4] = human, in vivo
Procedure: as §3, §4, §5, §6, §7

[5] = system: serum PD markers (total and ionized calcium, phosphorus, PTH(1-84), 1,25-dihydroxyvitamin D, P1NP, CTX); assay type: in vivo, human
Source text: Predose Days: Days −30 and −2
PTH(1-84) and 1,25-dihydroxyvitamin D (vitamin D):
Procollagen Type 1 N-Propeptide (P1NP) and C-Telopeptide
Predose (Day −2), Days 3, 8, and 14.
as §2

Structure (SMILES): Oc1ccccc1 [Phenol]
- preservative efficacy [1]: maintained
- Preservative effectiveness test Results [1]: compliant

Structure (SMILES): OCc1ccccc1 [Benzyl Alcohol]
- preservative efficacy [1]: not compliant
- Preservative effectiveness test Results [1]: compliant
- rate of kill against S Aureus (Staphylococcus aureus): insufficient rate of kill

Structure (SMILES): CC[C@H](C)[C@H](NC(=O)[C@H](CO)NC(=O)[C@H](CCCCN)NC(=O)CNC(=O)[C@H](CCCCN)NC(=O)[C@H](CC(=O)O)NC(=O)[C@H](Cc1cnc[nH]1)NC(=O)[C@H](CC(C)C)NC(=O)[C@H](CC(C)C)NC(=O)[C@H](CCC(N)=O)NC(=O)[C@H](Cc1cnc[nH]1)NC(=O)[C@H](CCC(=O)O)NC(=O)[C@H](CO)NC(=O)[C@@H](NC(=O)[C@H](C)N)C(C)C)C(=O)N[C@@H](CCC(N)=O)C(=O)N[C@@H](CC(=O)O)C(=O)N[C@@H](CC(C)C)C(=O)N[C@@H](CCCNC(=N)N)C(=O)N[C@@H](CCCNC(=N)N)C(=O)N[C@@H](CCCNC(=N)N)C(=O)N[C@@H](CCC(=O)O)C(=O)N[C@@H](CC(C)C)C(=O)N[C@@H](CC(C)C)C(=O)N[C@@H](CCC(=O)O)C(=O)N[C@@H](CCCCN)C(=O)N[C@@H](CC(C)C)C(=O)N[C@@H](CC(C)C)C(=O)NC(C)(C)C(=O)N[C@@H](CCCCN)C(=O)N[C@@H](CC(C)C)C(=O)N[C@@H](Cc1cnc[nH]1)C(=O)N[C@H](C(=O)N[C@@H](C)C(N)=O)[C@@H](C)O [SEQ ID NO.: 2, [Glu^22,25, Leu^23,28,31, Aib^29, Lys^26,30]hPTHrP(1-34)NH2]
- half-life (clinical; mean t1/2): 1.05 to 2.59 h
- AUC(0-inf) (clinical; sc, 5 ug): 0.187 ± 0.0545 ng·h/mL
- AUC0-t (clinical; sc, 5 ug): 0.0784 ± 0.0455 ng·h/mL
- AUC (clinical; sc, 5 ug): 0.187 ± 0.0544 ng·h/mL
- CL/F (clinical; sc, 5 ug): 476 mL/min
- Cmax (clinical; sc, 5 ug): 0.0431 ± 0.0107 ng/mL
- Tmax (clinical; sc, 5 ug): 0.566 h
- half-life (clinical; sc, 5 ug, t1/2): 2.59 ± 0.69 h
- AUC(0-inf) (clinical; sc, 20 ug): 0.257 ± 0.119 ng·h/mL
- AUC0-t (clinical; sc, 20 ug): 0.161 ± 0.111 ng·h/mL
- AUC (clinical; sc, 20 ug): 0.257 ± 0.119 ng·h/mL
- CL/F (clinical; sc, 20 ug): 1570 mL/min
- Cmax (clinical; sc, 20 ug): 0.115 ± 0.0539 ng/mL
- Tmax (clinical; sc, 20 ug): 0.296 h
- half-life (clinical; sc, 20 ug, t1/2): 1.05 ± 0.314 h
- AUC(0-inf) (clinical; sc, 40 ug): 0.593 ± 0.281 ng·h/mL
- AUC0-t (clinical; sc, 40 ug): 0.42 ± 0.275 ng·h/mL
- AUC (clinical; sc, 40 ug): 0.593 ± 0.281 ng·h/mL
- CL/F (clinical; sc, 40 ug): 1400 mL/min
- Cmax (clinical; sc, 40 ug): 0.223 ± 0.099 ng/mL
- Tmax (clinical; sc, 40 ug): 0.494 h
- half-life (clinical; sc, 40 ug, t1/2): 1.65 ± 0.254 h
- AUC(0-inf) (clinical; sc, 80 ug): 1.06 ± 0.514 ng·h/mL
- AUC0-t (clinical; sc, 80 ug): 0.95 ± 0.494 ng·h/mL
- AUC (clinical; sc, 80 ug): 1.05 ± 0.511 ng·h/mL
- CL/F (clinical; sc, 80 ug): 1580 mL/min
- Cmax (clinical; sc, 80 ug): 0.31 ± 0.0543 ng/mL
- Tmax (clinical; sc, 80 ug): 0.752 h
- half-life (clinical; sc, 80 ug, t1/2): 2.3 ± 0.715 h
- mean urinary excretion rates of calcium ([2]; Day 1): approximately at predose levels
- Mean urinary excretion rates of c-AMP ([2]; Days 1 and 7): increased
- Mean urinary excretion rates of creatinine ([2]; Days 1 and 7): fluctuated around the predose levels
- Mean urinary excretion rates of phosphorus ([2]; Days 1 and 7): fluctuated around the predose levels
- solution stability, influence of the preservative [3]: not significantly influenced by the preservative selected
- Apparent clearance ([4]; 80 ug): 82.74 to 103.9 L/h
- Dose proportionality Slope, AUC (0-inf) ([4]; 80 ug): 0.9957
- Dose proportionality Slope, AUC (0-t) ([4]; 80 ug): 0.9071
- Dose proportionality Slope, AUC (0-tau) ([4]; 80 ug): 1.141
- increases in PK parameters Cmax, AUC(0-f), AUC(0-τ), AUC(0-∞) with dose ([4]; 80 ug): dose-proportional
- AUC0-t ([4]; sc, 5 ug): 0.080704 ± 0.030441 ng·h/mL
- AUCR ([4]; sc, 5 ug): 0.521 ± 0.111
- CL/F ([4]; sc, 5 ug): 28.56 L/h
- Cmax ([4]; sc, 5 ug): 0.0408 ± 0.00763 ng/mL
- Tmax ([4]; sc, 5 ug): 1.05 (0.514, 1.53) hr
- ln (AUC0-inf) ([4]; sc, 5 ug): 5.200 ± 0.3016
- ln (AUC0-tau) ([4]; sc, 5 ug): 5.198 ± 0.3007
- AUC0-t ([4]; sc, 20 ug): 0.17158 ± 0.082031 ng·h/mL
- AUC0-tau ([4]; sc, 20 ug): 0.2282 ± 0.095154 ng·h/mL
- AUCR ([4]; sc, 20 ug): 0.828 ± 0.0449
- CL/F ([4]; sc, 20 ug): 103.9 ± 53.01 L/h
- Cmax ([4]; sc, 20 ug): 0.109 ± 0.0192 ng/mL
- Tmax ([4]; sc, 20 ug): 0.512 (0.250, 3.05) hr
- ln (AUC0-inf) ([4]; sc, 20 ug): 5.456 ± 0.4957
- t1/2 ([4]; sc, 20 ug): 1.05 ± 0.244 h
- AUC0-t ([4]; sc, 40 ug): 0.40798 ± 0.2197 ng·h/mL
- AUC0-tau ([4]; sc, 40 ug): 0.48188 ± 0.22619 ng·h/mL
- AUCR ([4]; sc, 40 ug): 0.838 ± 0.0703
- CL/F ([4]; sc, 40 ug): 102.0 ± 53.34 L/h
- Cmax ([4]; sc, 40 ug): 0.207 ± 0.0777 ng/mL
- Tmax ([4]; sc, 40 ug): 0.492 (0.349, 1.00) hr
- ln (AUC0-inf) ([4]; sc, 40 ug): 6.280 ± 0.5203
- t1/2 ([4]; sc, 40 ug): 1.43 ± 0.397 h
- AUC0-t ([4]; sc, 80 ug): 1.003 ± 0.38345 ng·h/mL
- AUC0-tau ([4]; sc, 80 ug): 1.0803 ± 0.40857 ng·h/mL
- AUCR ([4]; sc, 80 ug): 0.892 ± 0.0369
- CL/F ([4]; sc, 80 ug): 82.74 ± 26.95 L/h
- Cmax ([4]; sc, 80 ug): 0.436 ± 0.0688 ng/mL
- Tmax ([4]; sc, 80 ug): 0.507 (0.500, 1.00) hr
- ln (AUC0-inf) ([4]; sc, 80 ug): 6.855 ± 0.5063
- t1/2 ([4]; sc, 80 ug): 1.69 ± 0.425 h
- P1NP concentrations in serum, maximum increase above baseline ([5]; 80 μg dose, Days 3, 8, and 14): up to 18±12 ng/mL
- 1,25-dihydroxyvitamin D concentrations in serum ([5]; 40 and 80 μg doses, after 2 hours postdose on Day 1 and most of the time on Day 7): steadily rose above the predose levels
- serum phosphorus concentrations versus placebo ([5]; Days 1 and 7): below the placebo concentration levels
- Serum PTH (1-84) concentrations ([5]; Days 1 and 7, during most of the sampling times): remained below the predose levels and placebo dose
- Total calcium concentrations in serum versus reference range ([5]; human, in vivo): remained within the reference range
